Where a name gives a salt, the structure may show the parent alone. Blank lines part the entries; values can stand above or below the molecule they belong to.
Columns and labels:
[1] = target: T1, crTRP1 (Chlamydomonas reinhardtii, UniProt Q0Z852); assay: planar lipid bilayer single-channel recording; assay type: biochemical; conditions: inhibitor 10 µM; 2.5 µM PIP2, 28 °C, +120 mV
T1 construct: HEK 293S GnTI-; purified in GDN or LMNG; homotetramer; from primer N-terminus MKVAPAPASGQP, C-terminus TAAAGH before the tag
T1 sequence (Q0Z852 1-901): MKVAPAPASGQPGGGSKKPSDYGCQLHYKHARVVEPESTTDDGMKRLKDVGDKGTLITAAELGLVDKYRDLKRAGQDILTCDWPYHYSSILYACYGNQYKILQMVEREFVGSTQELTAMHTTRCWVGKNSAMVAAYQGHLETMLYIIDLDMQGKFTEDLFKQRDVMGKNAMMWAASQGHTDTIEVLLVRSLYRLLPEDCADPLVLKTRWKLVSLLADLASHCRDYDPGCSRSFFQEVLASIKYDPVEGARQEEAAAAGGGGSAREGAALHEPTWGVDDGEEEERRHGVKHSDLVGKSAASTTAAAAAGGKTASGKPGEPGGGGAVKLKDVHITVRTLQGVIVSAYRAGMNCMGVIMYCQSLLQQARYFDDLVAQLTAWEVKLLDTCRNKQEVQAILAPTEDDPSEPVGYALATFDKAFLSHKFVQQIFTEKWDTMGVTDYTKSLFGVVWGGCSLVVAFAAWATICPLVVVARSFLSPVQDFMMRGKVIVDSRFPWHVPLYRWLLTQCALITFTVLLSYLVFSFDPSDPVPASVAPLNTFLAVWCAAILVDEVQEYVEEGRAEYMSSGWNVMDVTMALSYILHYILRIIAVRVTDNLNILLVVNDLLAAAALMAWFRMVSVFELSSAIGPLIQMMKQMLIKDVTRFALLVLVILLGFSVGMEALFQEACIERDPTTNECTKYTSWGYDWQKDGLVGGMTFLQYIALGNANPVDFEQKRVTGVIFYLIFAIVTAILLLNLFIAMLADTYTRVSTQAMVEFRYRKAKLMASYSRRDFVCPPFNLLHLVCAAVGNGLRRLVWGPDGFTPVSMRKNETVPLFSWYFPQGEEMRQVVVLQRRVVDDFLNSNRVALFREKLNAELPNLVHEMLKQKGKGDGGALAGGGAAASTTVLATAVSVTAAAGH

[2] = target: T2, crTRP1 (Chlamydomonas reinhardtii, UniProt Q0Z852); assay: planar lipid bilayer single-channel recording; assay type: biochemical; conditions: activator test; deletion borders not given, only primers; loss of activation
T2 construct: HEK 293S GnTI-; purified in GDN or LMNG; homotetramer; from primer N-terminus MKVAPAPASGQP, C-terminus TAAAGH before the tag

[3] = target: T1, crTRP1; assay: planar lipid bilayer single-channel recording; assay type: biochemical; conditions: activator 2.5 µM; POPG/POPC/POPE bilayer, pH 7.2, 28 °C; diC8 form added to both compartments
[4] = target: transient receptor potential (TRP) channel crTRP1 from Chlamydomonas reinhardtii (Chlamydomonas reinhardtii); assay: cryo-EM structure; crTRP1 in detergent GDN (20 mM Tris pH 8.0, 150 mM NaCl, 0.01% GDN, 1 mM BME, 10 mM TCEP added); grids frozen at 4 °C; 3.53 Å; self-association: homotetramer
[5] = target: transient receptor potential (TRP) channel crTRP1 from Chlamydomonas reinhardtii (Chlamydomonas reinhardtii); assay: cryo-EM structure; crTRP1 in MSP2N2 nanodiscs (POPC:POPE 3:1; 150 mM KCl, 20 mM Hepes pH 7.4, 1 µM CaCl2, 20 µM MgCl2, no detergent); grids frozen at 22 °C; 3.45 Å; C2 symmetry; self-association: homotetramer

Molecule: CC(C)(C)c1ccc(NC(=O)N2CCN(c3ncccc3Cl)CC2)cc1 [BCTC, N-(4-tertiarybutylphenyl)-4-(3-cholorphyridin-2-yl)tetrahydropyrazine-1(2 H)-carbox-amide]
Po change at 10 μM [1]: BCTC) strongly suppressed crTRP1-mediated currents (Fig. 1g, h)

Molecule: CCCCCCCC(=O)OC[C@H](COP(=O)(O)O[C@@H]1[C@H](O)[C@H](O)[C@@H](OP(=O)(O)O)[C@H](OP(=O)(O)O)[C@H]1O)OC(=O)CCCCCCC [PIP2, 1-(1,2R-dioctanoylphosphatidyl)inositol-4,5-bisphosphate, trisodium salt]
planar lipid bilayer single-channel recording [2]: deleting the entire pre-S1 elbow resulted in a greatly reduced Po and loss of activation by PIP2
planar lipid bilayer single-channel recording [3]: Addition of PIP2 readily evoked channel openings.

stoichiometry N [4]: 4
stoichiometry N [5]: 4
Molecule: transient receptor potential (TRP) channel crTRP1 from Chlamydomonas reinhardtii (natural protein)
